How the values were obtained:
pregnant rats = assay: Abortifacient activity in pregnant rats; assay type: in vivo, rat; conditions: treatment days 5-7 of pregnancy, autopsy day 9; * SAS, probit procedure
Source text: (§1) The guinea pig is considered as relevant model of human gestation and parturition (Elger W, Fähnrich M, Beier S, Quing S S, Chwalisz K (1987). Endometrial and myometrial effects of progesterone antagonists in pregnant guinea pigs. Am J Obstet Gynecol 157: 1065-1074; Elger W, Neef G, Beier S, Fähnrich M, Gründel M, Heermann J, Malmendier A, Laurent D, Puri C P, Singh M M, Hasan S H, Becker H (1992). Evaluation of antifertility activities of antigestagens in animal model. In: Puri C P and Van Look P F A (eds), Current Concepts in Fertility Regulation and Reproduction. Wiley Eastern Limited, New Delhi, pp. 303-328; Elger W, Faehnrich M, Beier S, Qing S S, Chwalisz K (1986). Mechanism of action of progesterone antagonists in pregnant guinea pigs. Contraception 6: 47-62; Elger W, Chwalisz K, Faehnrich M, Hasan S H, Laurent D, Beier S, Ottow E, Neef G, Garfield R E (1990). Studies on labor-conditioning and labor-inducing effects of antiprogesterones in animal model. In: Garfield R E (eds), Norwell, pp. 153-175.) The mechanism of abortion of antiprogestins in this species is the initiation of labor and finally the expulsion of the conceptus. Abortifacient effects in the rat during very early pregnancy reflect inhibitory effects on nidation rather than initiation of uterine contractions. Studies in the rat model lead to “overestimation” of the potential of antiprogestins to terminate pregnancy in humans. Conversely, in the guinea pig model, irrespective of the antiprogestin doses, there were high rates of ongoing pregnancies similar to the situation in humans (Elger et al., Current Concepts in Fertility Regulation and Reproduction cited above). Furthermore, in both humans and guinea pigs, there is a strong synergism between antiprogestins and prostaglandins with respect the induction of labor (see the articles cited above and Elger W, Beier S (1983). Prostaglandine und Antigestagene für den Schwangerschaftsabbruch (Prostaglandins and antigestagens for pregnancy termination). German Patent DE 3337450 12; Van Look P, Bygdeman M (1989). Antiprogestational steroids: a new dimension in human fertility regulation. Oxford reviews of reproductive medicine 11: 2-60).

pregnant guinea pigs = assay: Abortifacient (labor inducing) activity in pregnant guinea pigs; assay type: in vivo, guinea pig; conditions: for abortifacient activity ED50, guinea pig: treatment day 43-44 of pregnancy, autopsy day 50; for maximal abortion rate: up to 100 mg/kg/day
Protocol: In the guinea pig model which allows a good prediction of the effects in humans with respect to the abortifacient activity (Elger W, Beier S., Chwalisz K, Fähnrich M, Hasan S H, Henderson D, Neef G, Rohde R (1986): Studies on the mechanism of action of progesterone antagonists. J Steroid Biochem 25: 835-845) the mesoprogestins J 867, J 912, J 956, J 1042 lead up to 100 mg/kg/day to a maximal abortion rate of 20%.
as §1
Pregnant guinea pigs were treated on days 43 and 44 of pregnancy and observed until day 50 of gestation. For the effects of various treatments see table 1 and FIG. 2. It is typical for this model that expulsions occur with a delay of several days after treatment. It can be seen that Mesoprogestins have a much reduced abortifacient activity compared to RU486. […] The differences with respect to abortifacient activity seem qualitative ones. It is not possible to overcome the low abortifacient activity of a Mesoprogestin by the use of a higher dose.

[1] = molecular target: T1, progesterone receptor (PR) (Oryctolagus cuniculus, UniProt P06186); assay: McPhail test, PR agonistic properties in estradiol-primed juvenile rabbits; assay type: in vivo, rabbit; conditions: for maximum effect, McPhail score: 4 days s.c. treatment, absence of progesterone, 0 = no transformation, 4 = complete transformation
T1 construct: from tissue; host or cells: endometrium of estradiol-primed juvenile rabbits, in vivo
T1 sequence (P06186 1-930): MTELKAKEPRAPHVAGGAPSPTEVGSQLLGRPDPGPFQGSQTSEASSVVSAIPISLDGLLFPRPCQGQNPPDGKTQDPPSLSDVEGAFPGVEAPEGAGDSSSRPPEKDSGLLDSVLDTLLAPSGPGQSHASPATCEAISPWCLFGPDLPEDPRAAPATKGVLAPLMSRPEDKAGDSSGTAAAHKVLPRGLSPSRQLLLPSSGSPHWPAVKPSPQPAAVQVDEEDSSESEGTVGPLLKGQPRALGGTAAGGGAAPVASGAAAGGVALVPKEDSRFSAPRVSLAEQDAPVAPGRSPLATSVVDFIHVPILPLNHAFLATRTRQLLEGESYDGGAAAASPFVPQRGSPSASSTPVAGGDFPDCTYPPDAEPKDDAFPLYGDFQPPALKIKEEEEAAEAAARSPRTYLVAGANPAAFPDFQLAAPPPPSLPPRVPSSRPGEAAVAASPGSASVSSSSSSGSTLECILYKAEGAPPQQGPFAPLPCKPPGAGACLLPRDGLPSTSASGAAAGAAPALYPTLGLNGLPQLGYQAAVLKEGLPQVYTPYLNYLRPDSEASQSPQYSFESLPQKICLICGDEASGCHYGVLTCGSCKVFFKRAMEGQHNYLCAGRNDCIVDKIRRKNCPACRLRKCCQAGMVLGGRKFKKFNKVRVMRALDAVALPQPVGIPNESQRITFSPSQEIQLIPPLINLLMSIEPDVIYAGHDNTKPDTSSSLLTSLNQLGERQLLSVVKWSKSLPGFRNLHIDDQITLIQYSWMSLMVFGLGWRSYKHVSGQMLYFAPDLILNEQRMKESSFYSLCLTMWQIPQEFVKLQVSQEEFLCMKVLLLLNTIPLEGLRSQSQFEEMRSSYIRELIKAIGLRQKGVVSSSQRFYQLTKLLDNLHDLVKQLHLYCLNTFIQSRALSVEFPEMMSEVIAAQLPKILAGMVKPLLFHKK
Protocol: In the classical bioassay, the McPhail test, assessing progestagenic and antiprogestagenic effects in rabbits (Selye H., Textbook of Endocrinology, 1947, pp. 345-346), progesterone produces a maximum McPhail score of 4 (by definition). […] The PR antagonistic and agonistic properties of mesoprogestins were assessed in estrogen-primed rabbits in the McPhail test according to Selye (Textbook of Endocrinology, 1947, pp. 345-346).

[2] = dose range 0.003-100 mg/rabbit s.c.

| Structure (SMILES) | abortifacient activity ED50, Rat (pregnant rats) | abortifacient activity ED50, guinea pig (pregnant guinea pigs) | maximal abortion rate (pregnant guinea pigs) [%] | progestagenic effect compared with maximum effect of progesterone [1, 2] | maximum effect, McPhail score [1] | shape of dose response [1, 2] | dose inducing endometrial transformation ([1]; 4 days s.c.) [mg] |
| --- | --- | --- | --- | --- | --- | --- | --- |
| COC[C@]1(OC)CC[C@H]2[C@@H]3CCC4=CC(=O)CCC4=C3[C@@H](c3ccc(/C=N/O)cc3)C[C@@]21C [Compound J867, 4-[17βMethoxy-17α-(methoxymethyl)-3-oxoestra-4,9-dien-11β-yl]benzaldehyd-(1E)-oxim] | 0.65* mg/animal/day, s.c. | >100 mg/animal/day, s.c. | 20 | Neither mesoprogestin tested (J 1042, J867, J956) reached the maximum effect of progesterone | – | – | – |
| COCC1(O)CCC2C3CCC4=CC(=O)CCC4=C3C(c3ccc(C=NO)cc3)CC21C (stereo not drawn) [Compound J912, 4-[17β-Hydroxy-17α-(methoxymethyl)-3-oxoestra-4,9-dien-11β-yl]benzaldehyd-(1E)-oxim] | 0.36 mg/animal/day, s.c. | >100 mg/animal/day, s.c. | 20 | – | – | – | – |
| CCNC(=O)O/N=C/c1ccc([C@H]2C[C@@]3(C)[C@@H](CC[C@]3(COC)OC)[C@@H]3CCC4=CC(=O)CCC4=C32)cc1 [Compound J956, 4-[17β-Methoxy-17α-(methoxymethyl)-3-oxoestra-4,9-dien-11β-yl]benzaldehyd-(1E)-[O-(ethylamino)carbonyl]oxim] | 0.64* mg/animal/day, s.c. | 20 mg/animal/day, s.c. | 20 | Neither mesoprogestin tested (J 1042, J867, J956) reached the maximum effect of progesterone | 1.5 | biphasic response | – |
| CCSC(=O)O/N=C/c1ccc([C@H]2C[C@@]3(C)[C@@H](CC[C@]3(COC)OC)[C@@H]3CCC4=CC(=O)CCC4=C32)cc1 [Compound J1042, 4-[17β-Methoxy-17α-(methoxymethyl)-3-oxoestra-4,9-dien-11β-yl]benzaldehyd-(1E)-[O-(ethylthio)carbonyl]oxim] | >10 mg/animal/day, s.c. | >>100 mg/animal/day, s.c. | 20 | Neither mesoprogestin tested (J 1042, J867, J956) reached the maximum effect of progesterone | – | – | – |
| CN(C)c1ccc([C@H]2C[C@]3(C)[C@@H](CC[C@]3(O)CCCO)[C@@H]3CCC4=CC(=O)CCC4=C32)cc1 [Onapristone, onapristone, reference compound] | 1.71* mg/animal/day, s.c. | ca 3 mg/animal/day, s.c. | – | – | – | – | – |
| CC(=O)[C@H]1CC[C@H]2[C@@H]3CCC4=CC(=O)CC[C@]4(C)[C@H]3CC[C@]12C [Progesterone, progesterone] | – | – | – | – | ~4 | – | ≥ 0.1 |
| CC#C[C@]1(O)CC[C@H]2[C@@H]3CCC4=CC(=O)CCC4=C3[C@@H](c3ccc(N(C)C)cc3)C[C@@]21C [RU 486, reference compound] | 0.98* mg/animal/day, s.c. | 3.8 mg/animal/day, s.c. | – | – | – | – | – |
